What was measured:
Assay type in all cases: functional
Conditions in all cases: read-out: ED50 (the source's name)
COLO 205 = experiment: Cytotoxicity against human COLO205 cells
SK-MEL-5 = experiment: Cytotoxicity against human SK-MEL-5 cells
KB = experiment: Cytotoxicity against human KB cells

For `COC(=O)[C@@]12OC[C@]34[C@H]([C@@H](O)[C@@H]1O)[C@@]1(C)[C@H](O)C(=O)C[C@@H](C)[C@@H]1C[C@H]3OC(=O)[C@H](OC(=O)/C=C(\C)C(C)(C)OC(C)=O)[C@@H]24` [BRUCEANOL G], the EC50 (COLO 205) was 0.44 µM, the EC50 (SK-MEL-5) was 4.08 µM and the EC50 (KB) was 0.55 µM.
`COC(=O)[C@@]12OC[C@]34[C@H]([C@@H](O)[C@@H]1O)[C@@]1(C)C(=O)[C@@H](O)C[C@@H](C)[C@@H]1C[C@H]3OC(=O)[C@H](OC(=O)/C=C(\C)C(C)C)[C@@H]24` [BRUCEANOL H] showed an EC50 (SK-MEL-5) of 6.37 µM.
